Data set [1] is described as follows: Stability in solution at pH 7 (HPLC purity over time). Particulars: pH 7, 37° C. In kind it is physicochemical. The procedure: (§1) The stability of the aminoquinoline-cephalosporin_hybrid molecules given as examples was determined in solution at 37° C., at physiological pH (pH 7, phosphate buffer/acetonitrile, 75/25 v/v) and at acidic pH (pH 1, 0.1 M HCl/ethanol, 70/30 v/v) by high pressure liquid chromatography coupled to a UV-visible detector (Beckman Coulter ODS C18 column, 5 μm, 4.6×250 mm; eluents: A: 0.1% TFA, B: CH3CN/H2O 90/10 0.1% TFA, gradient: from 10% to 100% of B in 30 minutes, and then 100% of B for 10 minutes, flow rate 1 mL/minutes, λ=254 nm, volume injected: 10 μL).

Another data set deals with H. influenzae CIP 102514. Put plainly: Antibacterial activity (MIC/MBC). In kind it is cell-based, Haemophilus influenzae.
For data set [2], the system named is S. pneumoniae PRSP CIP 104471. Put plainly: Antibacterial activity (MIC/MBC). In kind it is cell-based, Streptococcus pneumoniae.
Data set [3] relates to Staphylococcus aureus MSSA CIP 4.83. Put plainly: Antibacterial activity (MIC/MBC). The conditions noted are these: S. aureus MSSA CIP 4.83. In kind it is cell-based.
For data set [4], the system named is S. pneumoniae PRSP clinical isolate. Put plainly: Antibacterial activity (MIC/MBC). In kind it is cell-based, Streptococcus pneumoniae.
For data set [5], the system named is E. faecalis VRE CIP 104676. Put plainly: Antibacterial activity (MIC/MBC). It counts as cell-based, Enterococcus faecalis. The conditions noted are these: E. faecalis VRE CIP 104676.
The subject of data set [6] is Human lung fibroblast cells (ATCC CCL-171). The data set is described as follows: Cytotoxicity (MTT) assay. The conditions noted are these: for % of survival cells compared to the untreated controls: 18 hr treatment. Here is the method:
Cellular toxicity was measured by a colorimetric assay that makes use of the tetrazolium salt, MTT. Human lung fibroblast cells (ATCC CCL-171) were plated in 96-well plates at 10^4 cells per well and incubated under 5% CO2 at 37° C. for 24 hr to allow adherence of cells to the plate. Test compounds were prepared as a stock solution at 1 mg/mL in 1% DMSO/water and diluted with water for the serial dilutions (500-7.8 μg/mL). Cells underwent a 18 hr treatment under 5% CO2 at 37° C. with experimental drugs. Corresponding controls received either no drug treatment or treatment with SDS (sodium dodecyl sulfate). The optical density of each sample was read on a microplate spectrophotometer reader at 600 nm and cell survival was expressed as a fraction of that of untreated controls. A drug is said cytotoxic when this fraction is ≦−30%

Data set [7] can be described thus: Stability in solution at pH 1 (HPLC purity over time). In kind it is physicochemical. Particulars: pH 1, 37° C. Here is the method: as §1
The mark [8] stands for this setting: Haemophilus influenzae, CIP102514.
The mark [9] stands for this setting: Streptococcus pneumoniae, read-out: MIC.
Where [10] appears, read: Staphylococcus aureus, read-out: MBC.
The mark [11] stands for this setting: Staphylococcus aureus, read-out: MIC.
The mark [12] stands for this setting: Streptococcus pneumoniae, PRSP, read-out: MIC.
[13] abbreviates: Enterococcus faecalis, read-out: MIC.
The mark [14] stands for this setting: Haemophilus influenzae, CIP102514, H. influenzae CIP 102514, read-out: MIC.
Where [15] appears, read: Haemophilus influenzae, CIP102514, H. influenzae CIP 102514, read-out: MBC.

Structures are written as SMILES. Converted amounts (≈) assume the structure as drawn. Read-outs that look alike come from different tables or passages of the source.

As for `CC(=O)OCC1=C(C(=O)O)N2C(=O)[C@@H](NC(=O)CNc3ccnc4cc(Cl)ccc34)[C@H]2[S+]([O-])C1.Cl` (stereo partly drawn) [PA 1088, (6R,7R-3-Acetoxymethyl-7-[2-7-chloroquinolin-4-ylamino)acetylamino]-5,8-dioxo-5λ^4-thia-1-aza-bicyclo[4.2.0]oct-2-ene-2-carboxylic acid hydrochloride], the “Purity of the hybrid molecules (as a percentage) as a function of time (hours)” value came to 100% in data set [1] (time 0 h); 100% in data set [1] (time 1 h); 100% in data set [1] (time 2 h); 100% in data set [1] (time 4 h); 81% in data set [1] (time 24 h).
Consider `CC(=O)OCC1=C(C(=O)O)N2C(=O)[C@@H](N)[C@H]2SC1` [7-ACA, 7-aminocephalosporanic acid, reference compound], for which the MIC is 50 µg/mL (≈ 184 µM) against H. influenzae CIP 102514 (H. influenzae CIP 102514); 50 µg/mL (≈ 184 µM) in data set [2]; 50 µg/mL (≈ 184 µM) in data set [3]; 50 µg/mL (≈ 184 µM) in data set [4]; >50 µg/mL in data set [5].
For `CC(=O)OCC1=C(C(=O)O)N2C(=O)[C@@H](NC(=O)CCCNc3ccnc4cc(Cl)ccc34)[C@H]2SC1` [PA 1053, (6R,7R-3-Acetoxymethyl-7-[4-7-chloroquinolin-4-ylamino)-butyrylamino]-8-oxo-5-thia-1-aza-bicyclo[4.2.0]oct-2-ene-2-carboxylic acid], the MBC with H. influenzae CIP 102514 (setting [8]) is 25 µg/mL (≈ 48.2 µM); in data set [2] (Streptococcus pneumoniae), 3.12 µg/mL (≈ 6.01 µM); in data set [3] (setting [10]), > 50 µg/mL; in data set [4] (Streptococcus pneumoniae), 6.25 µg/mL (≈ 12 µM); in data set [5] (Enterococcus faecalis), > 50 µg/mL. Also, the MIC against H. influenzae CIP 102514 (setting [8]) worked out at 6.25 µg/mL (≈ 12 µM); in data set [2] (setting [9]), 1.56 µg/mL (≈ 3.01 µM); in data set [3] (setting [11]) it was 0.78 µg/mL (≈ 1.5 µM); in data set [4] (setting [12]) it was 3.12 µg/mL (≈ 6.01 µM); in data set [5] (setting [13]) it was 25 µg/mL (≈ 48.2 µM).
In the case of `CC(C)(C)C(=O)OCOC(=O)[C@@H]1N2C(=O)[C@@H](NC(=O)C3CCN(c4ccnc5cc(Cl)ccc45)CC3)[C@H]2SC1(C)C` [PA 1007, (2S,5R,6R)-6-{[1-(7-Chloroquinolin-4-yl)-piperidine-4-carbonyl]-amino}-3,3-dimethyl-7-oxo-4-thia-1-aza-bicyclo[3.2.0]heptane-2-carboxylic acid 2,2-dimethyl-propionyloxymethyl ester], in data set [3] (setting [10]), the MBC came out at 0.49 µg/mL (≈ 0.812 µM). Also, the MIC in data set [3] (setting [11]) was determined as 0.012 µg/mL (≈ 0.0199 µM).
As to `CC1(C)S[C@@H]2[C@H](NC(=O)Cc3ccccc3)C(=O)N2[C@H]1C(=O)O` [Penicillin G, reference compound], in data set [3], the MBC turned out to be 0.06 µg/mL (≈ 0.179 µM) and the MIC came to 0.008 µg/mL (≈ 0.0239 µM).
Take `CCCCCCCCCCCCOS(=O)(=O)[O-].[Na+]` [SDS, sodium dodecyl sulfate, reference compound]: the “% of survival cells compared to the untreated controls” value in data set [6] (7.8 μg/mL) is “+2.1%”; in data set [6] (15.6 μg/mL), −7.0%; in data set [6] (31.2 μg/mL), −16.4%; in data set [6] (62.5 μg/mL), −77.9%; in data set [6] (125 μg/mL) it was −81.2%; in data set [6] (250 μg/mL), −81.1%. Moreover, the “% of survival cells compared to the untreated controls” value in data set [6] (500 μg/mL) is recorded as −83.0%. Also, the “concentration at which the threshold of cytotoxicity (−30%) is exceeded” value in data set [6] (human, 18 hr) is ≥ 31200 ng/mL. In data set [6] (human, 18 hr), the “human lung fibroblast cells killed” value is recorded as “more than 80%”.
Regarding `O=C(O)CNc1ccnc2cc(Cl)ccc12` [PA 1117, (7-Chloroquinolin-4-ylamino)acetic acid, reference compound], the MIC is 50 µg/mL (≈ 211 µM) with H. influenzae CIP 102514 (setting [14]); 50 µg/mL (≈ 211 µM) in data set [2] (setting [9]); > 50 µg/mL in data set [3] (setting [11]); 50 µg/mL (≈ 211 µM) in data set [4] (setting [12]); > 50 µg/mL in data set [5] (setting [13]).
For `CC(=O)OCC1=C(C(=O)O)N2C(=O)[C@@H](NC(=O)C3CCN(c4ccnc5cc(Cl)ccc45)CC3)[C@H]2SC1.Cl` [PA 1074], the MBC in the data set with H. influenzae CIP 102514 (setting [15]) was > 50 µg/mL; in data set [2] (Streptococcus pneumoniae), 50 µg/mL; in data set [3] (setting [10]), 1.56 µg/mL; in data set [4] (Streptococcus pneumoniae), 50 µg/mL; in data set [5] (Enterococcus faecalis), > 50 µg/mL. The MIC in the data set with H. influenzae CIP 102514 (setting [14]) was 50 µg/mL; in data set [2] (setting [9]) it was 25 µg/mL; in data set [3] (setting [11]) it was 0.78 µg/mL; in data set [4] (setting [12]) it was 25 µg/mL; in data set [5] (setting [13]) it was 50 µg/mL. For the same compound, the “Purity of the hybrid molecules (as a percentage) as a function of time (hours)” value in data set [1] (time 0 h) stood at 100%; in data set [1] (time 1 h), 100%; in data set [1] (time 2 h), 100%; in data set [1] (time 4 h), 100%; in data set [1] (time 6 h), 100%; in data set [1] (time 8 h), 97%. The entries for the “Purity of the hybrid molecules (as a percentage) as a function of time (hours)” value in data set [1] (time 15 h) and in data set [1] (time 24 h) were 88% and 87%, respectively.
Consider `CC(=O)OCC1=C(C(=O)O)N2C(=O)[C@@H](NC(=O)CCNc3ccnc4cc(Cl)ccc34)[C@H]2SC1` [PA 1037], for which the MBC in the data set with H. influenzae CIP 102514 (setting [8]) was 25 µg/mL (≈ 49.5 µM); in data set [2] (Streptococcus pneumoniae), 3.12 µg/mL (≈ 6.18 µM); in data set [3] (setting [10]), > 50 µg/mL; in data set [4] (Streptococcus pneumoniae), 6.25 µg/mL (≈ 12.4 µM); in data set [5] (Enterococcus faecalis), 25 µg/mL (≈ 49.5 µM). Moreover, the MIC with H. influenzae CIP 102514 (setting [8]) worked out at 6.25 µg/mL (≈ 12.4 µM); in data set [2] (setting [9]), 1.56 µg/mL (≈ 3.09 µM); in data set [3] (setting [11]), 0.39 µg/mL (≈ 0.772 µM); in data set [4] (setting [12]) it was 3.12 µg/mL (≈ 6.18 µM); in data set [5] (setting [13]), 6.25 µg/mL (≈ 12.4 µM).
As to `CC(=O)OCC1=C(C(=O)O)N2C(=O)[C@@H](NC(=O)CNc3ccnc4cc(Cl)ccc34)[C@H]2[S+]([O-])C1` (stereo partly drawn) [PA 1092, (6R,7R-3-Acetoxymethyl-7-[2-7-chloroquinolin-4-ylamino)acetylamino]-5,8-dioxo-5λ^1-thia-1-aza-bicyclo[4.2.0]oct-2-ene-2-carboxylic acid], the MBC with H. influenzae CIP 102514 (setting [8]) is 50 µg/mL (≈ 98.6 µM); in data set [2] (Streptococcus pneumoniae) it was 3.12 µg/mL (≈ 6.15 µM); in data set [3] (setting [10]) it was > 50 µg/mL; in data set [4] (Streptococcus pneumoniae), 12.5 µg/mL (≈ 24.7 µM); in data set [5] (Enterococcus faecalis), > 50 µg/mL. Also, the MIC was 12.5 µg/mL (≈ 24.7 µM) against H. influenzae CIP 102514 (setting [8]); 1.56 µg/mL (≈ 3.08 µM) in data set [2] (setting [9]); 12.5 µg/mL (≈ 24.7 µM) in data set [3] (setting [11]); 6.25 µg/mL (≈ 12.3 µM) in data set [4] (setting [12]); > 50 µg/mL in data set [5] (setting [13]).
For `CC(=O)OCC1=C(C(=O)O)N2C(=O)[C@@H](NC(=O)CNc3ccnc4cc(Cl)ccc34)[C@H]2SC1.Cl` [PA 1089, (6R,7R)-3-Acetoxymethyl-7-[2-(7-chloroquinolin-4-ylamino)-acetylamino]-8-oxo-5-thia-1-aza-bicyclo[4.2.0]oct-2-ene-2-carboxylic acid hydrochloride], the MBC was > 50 µg/mL in the data set with H. influenzae CIP 102514 (setting [15]); 0.39 µg/mL in data set [2] (Streptococcus pneumoniae); 0.39 µg/mL in data set [3] (setting [10]); 0.39 µg/mL in data set [4] (Streptococcus pneumoniae); 12.5 µg/mL in data set [5] (Enterococcus faecalis). Further, the MIC with H. influenzae CIP 102514 (setting [14]) turned out to be 3.12 µg/mL; in data set [2] (setting [9]) it was 0.39 µg/mL; in data set [3] (setting [11]) it was 0.2 µg/mL; in data set [4] (setting [12]), 0.39 µg/mL; in data set [5] (setting [13]) it was 6.25 µg/mL. The “Purity of the hybrid molecules (as a percentage) as a function of time (hours)” value in data set [1] (time 0 h) was 100%; in data set [1] (time 1 h), 100%; in data set [1] (time 2 h), 100%; in data set [1] (time 4 h), 100%; in data set [1] (time 6 h) it was 98%; in data set [1] (time 8 h), 97%. Further, the “Purity of the hybrid molecules (as a percentage) as a function of time (hours)” value is reported as 92% in data set [1] (time 15 h); 83% in data set [1] (time 24 h); 100% in data set [7] (time 0 h); 96% in data set [7] (time 1 h); 88% in data set [7] (time 2 h); 81% in data set [7] (time 4 h). In addition, the “Purity of the hybrid molecules (as a percentage) as a function of time (hours)” value in data set [7] (time 24 h) is given as 24%.

The values above are taken from patent US20070060558A1 (PALUMED S.A., priority 2004, published 2007).
